Paper PMC12051620, “Molecular basis underlying the specificity of an antagonist AA92593 for mammalian melanopsins” (The Journal of Biological Chemistry, 2025)

Tests used:
Assay in all cases: GsX GloSensor assay with Gsα/q11
Assay type in all cases: cell-based
Settings in all cases: 16.7 μM AA92593, COS-1 cells
[1] = tested on: jumping spider rhodopsin-1 M94^2.61F/T188^ECL2S/L269^6.52S
Description: (§1) We next tested the effect of AA92593 on jumping spider rhodopsin-1, a Gq-coupled visual opsin but not melanopsin (see Figs. 2, S2, and S3) ([41]). Similar to non-mammalian-type and invertebrate melanopsins, jumping spider rhodopsin-1 was not sensitive to AA92593 as assessed using the GsX GloSensor assay (Fig. 7L). […] The introduction of I189^ECL2W/Y207^5.42F impaired the light-dependent cAMP responses even in the absence of AA92593 (Fig. S11). Taken together, the non-melanopsin Gq-coupled opsin cannot be functionally converted to an AA92593-sensitive type by site-directed mutagenesis, in contrast to non-mammalian-type and invertebrate melanopsins.
(§2) For GloSensor assay, opsins, GloSensor assay sensor (coded by pGlo-22F), and NanoBiT-tagged G proteins were transiently expressed in COS-1 cells (kindly provided from Dr David Farrens, Oregon Health and Science University) using PEI as described previously ([24], [52]). […] For GFP-fluorescence microscopy, a 35-mm cell culture dish (IWAKI) was transfected with 2 μg melanopsin-GFP plasmid and 8 μg PEI in 400 μl Opti-mem and 1.2 ml D-MEM. […]
(§3) The transfected COS-1 cells were incubated at 37 °C, 5% CO2 for 2 days, and the medium was aspirated and exchanged with 50 μl of HBSS (145 mM NaCl, 10 mM D-glucose, 5 mM KCl, 1 mM MgCl2, 1.7 mM CaCl2, 1.5 mM NaHCO3, 10 mM Hepes, pH 7.4), containing 33.3, 20, 10, 2, 0.2, 0.02, 0.002, or 0 μM AA92593, 0.5% dimetyl sulfoxide (DMSO), and 4% (vol/vol) GloSensor cAMP reagent stock solution. […] Then, the cells were incubated at room temperature for 1 h, and luminescence changes were monitored. After incubation of the cells with AA92593, luminescence measurement was interrupted, the plate was ejected, and the cells were added with 50 μl of HBSS containing 0.2 μM 9-cis-retinal. […] Luminescence was measured using GM-2000 or GM-3510 microplate reader (Promega). Luminescence level of each well was measured every 30 s with integration time of 0.6 to 0.9 s. […] After illumination, luminescence measurement was resumed. The measured luminescence levels were normalized to the level at the starting point (time = 0 min). […]

[2] = tested on: jumping spider rhodopsin-1 I189^ECL2W
Description: as §1, §2, §3

[3] = tested on: jumping spider rhodopsin-1 Y207^5.42F
Description: as §1, §2, §3

Measured: change in sensitivity to AA92593 vs WT

COc1ccc(S(=O)(=O)N2CCCCC2)cc1C [AA92593]
did not increase: [1] | [2] | [3]
